Measured values: patent US20230000870A1, “METHODS OF TREATING CANCER IN BIOMARKER-IDENTIFIED PATIENTS WITH INHIBITORS OF CYCLIN-DEPENDENT KINASE 7 (CDK7)” (Syros Pharmaceuticals, Inc., priority 2019, published 2023)

Columns and labels:
[1] = target: CDK2/Cyclin E1 complex (Homo sapiens, UniProt P24941); assay: CDK2 kinase inhibition assay (Caliper/LabChip EZ Reader); assay type: biochemical; conditions: CDK2/Cyclin E1 0.5 nM, ATP 2 mM, 35 min at 27° C.
Method: (§1) Compounds of the invention were assayed for inhibition of CDK7, CDK9, CDK12, and CDK2 activity at Biortus Biosciences (Jiangyin, Jiangsu Province, P.R. of China) using kinase assays for each CDK developed with a Caliper/LabChip EZ Reader (Perkin Elmer, Waltham, Mass.).
(§2) Furthermore, the CDK9 inhibition assay used CDK9/Cyclin T1 complex (8 nM) and “5-FAM-CDK9tide” peptide substrate (2 μM, synthesized fluorophore-labeled peptide with the following sequence: 5-FAM-GSRTPMY-NH2 where 5-FAM is defined above and NH2 signifies a C-terminal amide) with 10 mM MgCl2 in the buffer composition listed above. The CDK12 inhibition assay used CDK12 (aa686-1082)/Cyclin K complex (50 nM) and “5-FAM-CDK9tide” (2 μM) as defined above, with 2 mM MgCl2 in the buffer composition above. Additionally, the CDK2 inhibition assay used CDK2/Cyclin E1 complex (0.5 nM) and “5-FAM-CDK7tide” (2 μM) as defined above, with 2 mM MgCl2 in the buffer composition listed above.
(§3) The incubation period at 27° C. for each CDK inhibition assay was chosen such that the fraction of phosphorylated peptide product produced in each assay, relative to the total peptide concentration, was approximately 20% (±5%) for the uninhibited kinase (35 min. for CDK7, 35 min. for CDK2, 3 hr. for CDK12, 15 min. for CDK9).

[2] = target: CDK7/Cyclin H/MAT1 complex (Homo sapiens, UniProt P50613); assay: CDK7 kinase inhibition assay (Caliper/LabChip EZ Reader); assay type: biochemical; conditions: CDK7/Cyclin H/MAT1 6 nM, ATP 2 mM, 35 min at 27° C.
Sequence of CDK7/Cyclin H/MAT1 complex (P50613 whole entry): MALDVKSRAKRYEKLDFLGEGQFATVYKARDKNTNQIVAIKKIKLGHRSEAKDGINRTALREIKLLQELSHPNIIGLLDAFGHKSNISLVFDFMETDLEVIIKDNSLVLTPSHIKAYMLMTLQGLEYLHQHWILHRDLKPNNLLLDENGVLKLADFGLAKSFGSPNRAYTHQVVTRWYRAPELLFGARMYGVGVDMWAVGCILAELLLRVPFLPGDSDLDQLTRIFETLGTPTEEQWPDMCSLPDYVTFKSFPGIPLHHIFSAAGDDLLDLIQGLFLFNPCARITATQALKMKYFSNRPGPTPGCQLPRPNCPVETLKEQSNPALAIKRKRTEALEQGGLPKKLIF
Sequence of CDK7/Cyclin H/MAT1 complex (P51946 whole entry partner): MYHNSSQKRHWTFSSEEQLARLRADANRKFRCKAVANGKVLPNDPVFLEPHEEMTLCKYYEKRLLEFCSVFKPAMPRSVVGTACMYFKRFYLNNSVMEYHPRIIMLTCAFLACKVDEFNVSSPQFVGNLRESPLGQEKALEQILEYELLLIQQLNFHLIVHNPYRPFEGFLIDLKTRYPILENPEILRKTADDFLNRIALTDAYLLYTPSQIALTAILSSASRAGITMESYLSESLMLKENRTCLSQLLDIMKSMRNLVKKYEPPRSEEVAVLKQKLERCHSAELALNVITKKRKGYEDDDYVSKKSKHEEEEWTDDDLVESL
Sequence of CDK7/Cyclin H/MAT1 complex (P51948 whole entry partner): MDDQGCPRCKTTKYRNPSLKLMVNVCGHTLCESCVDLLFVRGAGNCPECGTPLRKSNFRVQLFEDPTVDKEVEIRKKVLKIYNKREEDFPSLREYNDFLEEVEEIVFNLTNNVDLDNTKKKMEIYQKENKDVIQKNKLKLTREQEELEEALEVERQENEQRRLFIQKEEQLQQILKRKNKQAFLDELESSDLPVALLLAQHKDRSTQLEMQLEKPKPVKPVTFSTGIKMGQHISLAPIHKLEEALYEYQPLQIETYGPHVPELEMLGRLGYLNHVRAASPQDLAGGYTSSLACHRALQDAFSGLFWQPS
Method: as §1, §2, §3

[3] = target: CDK9/Cyclin T1 complex (Homo sapiens, UniProt P50750); assay: CDK9 kinase inhibition assay (Caliper/LabChip EZ Reader); assay type: biochemical; conditions: CDK9/Cyclin T1 8 nM, ATP 2 mM, 15 min at 27° C.
Sequence of CDK9/Cyclin T1 complex (P50750 whole entry): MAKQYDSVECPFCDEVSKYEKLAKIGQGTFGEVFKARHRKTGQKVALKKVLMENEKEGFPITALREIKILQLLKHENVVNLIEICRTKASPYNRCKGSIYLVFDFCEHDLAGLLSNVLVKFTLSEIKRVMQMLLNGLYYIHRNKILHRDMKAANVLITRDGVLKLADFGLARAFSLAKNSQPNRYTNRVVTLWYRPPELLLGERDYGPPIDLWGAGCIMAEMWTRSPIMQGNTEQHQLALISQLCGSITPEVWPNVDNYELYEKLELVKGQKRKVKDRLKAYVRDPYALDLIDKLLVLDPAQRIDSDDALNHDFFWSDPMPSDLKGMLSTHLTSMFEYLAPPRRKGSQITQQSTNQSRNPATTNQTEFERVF
Sequence of CDK9/Cyclin T1 complex (O60563 whole entry partner): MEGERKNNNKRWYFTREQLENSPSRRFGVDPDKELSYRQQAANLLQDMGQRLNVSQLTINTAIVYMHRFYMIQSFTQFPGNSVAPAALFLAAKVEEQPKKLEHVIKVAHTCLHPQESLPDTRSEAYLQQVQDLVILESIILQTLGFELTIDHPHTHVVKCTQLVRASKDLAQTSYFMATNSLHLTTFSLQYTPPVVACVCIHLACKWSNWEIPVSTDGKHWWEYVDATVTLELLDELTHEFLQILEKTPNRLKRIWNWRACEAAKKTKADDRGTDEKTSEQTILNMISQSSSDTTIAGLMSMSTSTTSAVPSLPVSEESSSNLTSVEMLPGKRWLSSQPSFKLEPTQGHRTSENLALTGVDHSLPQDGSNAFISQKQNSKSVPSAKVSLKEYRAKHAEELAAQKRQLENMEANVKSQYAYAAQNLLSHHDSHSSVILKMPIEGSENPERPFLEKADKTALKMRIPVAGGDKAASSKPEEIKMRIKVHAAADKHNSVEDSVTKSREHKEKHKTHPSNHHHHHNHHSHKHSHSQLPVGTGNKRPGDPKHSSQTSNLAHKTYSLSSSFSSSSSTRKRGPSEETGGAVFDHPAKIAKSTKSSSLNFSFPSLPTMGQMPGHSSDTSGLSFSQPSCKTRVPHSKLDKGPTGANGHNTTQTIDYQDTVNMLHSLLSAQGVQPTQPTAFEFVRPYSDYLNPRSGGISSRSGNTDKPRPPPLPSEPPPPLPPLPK
Method: as §1, §2, §3

[4] = target: T1, CDK12 (aa686-1082)/Cyclin K complex (Homo sapiens, UniProt Q9NYV4); assay: CDK12 kinase inhibition assay (Caliper/LabChip EZ Reader); assay type: biochemical; conditions: CDK12 (aa686-1082)/Cyclin K 50 nM, ATP 2 mM, 3 hr at 27° C.
T1 construct: CDK12 (aa686-1082)/Cyclin K complex
T1 sequence (Q9NYV4 686-1082): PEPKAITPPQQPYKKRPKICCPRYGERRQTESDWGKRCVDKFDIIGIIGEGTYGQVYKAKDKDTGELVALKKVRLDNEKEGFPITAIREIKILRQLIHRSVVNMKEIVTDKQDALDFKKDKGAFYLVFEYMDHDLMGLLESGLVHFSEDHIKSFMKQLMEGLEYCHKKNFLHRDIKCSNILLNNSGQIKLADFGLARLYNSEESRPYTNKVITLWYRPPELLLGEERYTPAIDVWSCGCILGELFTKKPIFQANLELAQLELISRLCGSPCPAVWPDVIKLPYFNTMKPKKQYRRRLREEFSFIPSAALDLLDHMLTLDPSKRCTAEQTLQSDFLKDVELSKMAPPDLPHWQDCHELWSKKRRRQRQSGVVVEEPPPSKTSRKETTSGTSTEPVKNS
T1 sequence (O75909 whole entry partner, the tested form may be a part): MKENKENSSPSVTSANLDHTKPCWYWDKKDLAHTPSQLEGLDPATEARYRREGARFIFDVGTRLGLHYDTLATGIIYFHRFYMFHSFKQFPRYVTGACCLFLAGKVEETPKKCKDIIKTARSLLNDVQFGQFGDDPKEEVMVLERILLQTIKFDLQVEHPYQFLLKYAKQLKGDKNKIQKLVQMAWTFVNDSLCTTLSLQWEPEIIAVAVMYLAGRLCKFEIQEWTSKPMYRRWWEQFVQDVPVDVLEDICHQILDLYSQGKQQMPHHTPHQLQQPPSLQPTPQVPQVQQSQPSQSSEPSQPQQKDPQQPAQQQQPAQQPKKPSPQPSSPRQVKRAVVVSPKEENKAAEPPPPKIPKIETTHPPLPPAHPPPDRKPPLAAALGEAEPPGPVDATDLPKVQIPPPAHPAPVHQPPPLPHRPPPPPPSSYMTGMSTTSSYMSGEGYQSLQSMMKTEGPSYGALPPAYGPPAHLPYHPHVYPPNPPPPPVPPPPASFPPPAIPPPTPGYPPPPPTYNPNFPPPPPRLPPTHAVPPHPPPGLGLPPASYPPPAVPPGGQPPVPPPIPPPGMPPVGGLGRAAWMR
Method: as §1, §2, §3

[5] = tested on: A673 cells; assay: Inhibition of proliferation of A673 cells (CyQUANT, 72 hour); assay type: cell-based, human; conditions: read-out: Inhibition of Proliferation of A673 Cells (calculated IC50)
Method: A673 Cells: A673 cells are a cell line derived from human muscle Ewing's sarcoma. Representative compounds of the invention were tested at different concentrations (from 4 μM to […]; 0.5 log serial dilutions) for their ability to inhibit the proliferation of A673 cells. Known CDK inhibitors dinaciclib or N-((1S,3R)-3-((5-chloro-4-(1H-indol-3-yl)pyrimidin-2-yl)amino)cyclohexyl)-5-((E)-4-(dimethylamino)but-2-enamido)picolinamide and triptolide were used as positive controls. Cells were grown in Dulbecco's Modified Eagle's Medium, +10% FBS+1 mM Sodium Pyruvate. The cells were cultured at 37° C. in a humidified chamber in the presence of 5% CO2. Proliferation assays were conducted over a 72 hour time period. CyQUANT® (Life Technologies, Chicago, Ill. USA) was used to assess the anti-proliferative effects of the compounds following manufacturer's directions and utilizing the reagents supplied with the CyQUANT® kit.

SMILES | IC50 [1] | IC50 [2] | IC50 [3] | IC50 [4] | IC50 [5]
CCOP(=O)(OCC)c1ccc2c(-c3nc(NC4CCCNC4)ncc3C(F)(F)F)c[nH]c2c1 (stereo not drawn) [Compound 187] | ≥ 5000 nM | 20 to 200 nM | ≥ 5000 nM | 200 to 5000 nM | 20 to 200 nM
Cn1cc(-c2ccc3c(-c4nc(NC5CCCNC5)ncc4C(F)(F)F)c[nH]c3c2)cn1 (stereo not drawn) [Compound 181] | 200 to 5000 nM | < 20 nM | 200 to 5000 nM | 200 to 5000 nM | < 20 nM
Cc1nc(-c2ccc3c(-c4nc(NC5CCCNC5)ncc4C(F)(F)F)c[nH]c3c2)nn1C (stereo not drawn) [Compound 245] | 200 to 5000 nM | < 20 nM | ≥ 5000 nM | 200 to 5000 nM | 20 to 200 nM
Cc1nn(C)cc1-c1cccc2c(-c3nc(NC4CCCNC4)ncc3C(F)(F)F)c[nH]c12 (stereo not drawn) [Compound 171] | 200 to 5000 nM | < 20 nM | 200 to 5000 nM | 200 to 5000 nM | < 20 nM
N#Cc1cc(-c2ccc3c(-c4nc(NC5CCCNC5)ncc4C(F)(F)F)c[nH]c3c2)c[nH]1 (stereo not drawn) [Compound 233] | 200 to 5000 nM | < 20 nM | 200 to 5000 nM | 200 to 5000 nM | 20 to 200 nM
CC(C)(O)CCc1ccc2c(-c3nc(NC4CCCNC4)ncc3C(F)(F)F)c[nH]c2c1 (stereo not drawn) [Compound 242] | ≥ 5000 nM | 20 to 200 nM | 200 to 5000 nM | 200 to 5000 nM | 20 to 200 nM
OC1CCNCC1Nc1ncc(Cl)c(-c2c[nH]c3ccccc23)n1 (stereo not drawn) [Compound 113] | ≥ 5000 nM | 20 to 200 nM | ≥ 5000 nM | 200 to 5000 nM | 200 to 5000 nM
CC(O)c1cnc(NC2CCCNC2)nc1-c1c[nH]c2ccccc12 (stereo not drawn) [Compound 247] | ≥ 5000 nM | 200 to 5000 nM | ≥ 5000 nM | ≥ 5000 nM | 200 to 5000 nM
Fc1cccc2c(-c3nc(NC4CCCNC4)ncc3Cl)n[nH]c12 (stereo not drawn) [Compound 155] | 200 to 5000 nM | 20 to 200 nM | 200 to 5000 nM | 200 to 5000 nM | < 20 nM
C#Cc1cnc(N[C@H]2CCCNC2)nc1-c1cn(C)c2ccccc12 [Compound 195] | ≥ 5000 nM | 200 to 5000 nM | ≥ 5000 nM | ≥ 5000 nM | 20 to 200 nM
C#Cc1cnc(NC2CCCNC2)nc1-c1c[nH]c2ccccc12 (stereo not drawn) [Compound 194] | 200 to 5000 nM | < 20 nM | 200 to 5000 nM | 200 to 5000 nM | < 20 nM
CC(C)(O)Cn1cc(-c2ccc3c(-c4nc(N[C@H]5CCCNC5)ncc4C(F)(F)F)c[nH]c3c2)cn1 [Compound 214] | 200 to 5000 nM | 20 to 200 nM | 200 to 5000 nM | 200 to 5000 nM | 20 to 200 nM
CN1CCCC(Nc2ncc(Cl)c(-c3c[nH]c4ccccc34)n2)C1 (stereo not drawn) [Compound 136] | 200 to 5000 nM | < 20 nM | 200 to 5000 nM | 200 to 5000 nM | 20 to 200 nM
CNC(=O)C1CNCC(Nc2ncc(C(F)(F)F)c(-c3c[nH]c4ccccc34)n2)C1 (stereo not drawn) [Compound 253] | 20 to 200 nM | < 20 nM | 200 to 5000 nM | 20 to 200 nM | 20 to 200 nM
Fc1cc2[nH]cc(-c3nc(NC4CCCNC4)ncc3C(F)(F)F)c2cc1F (stereo not drawn) [Compound 184] | 20 to 200 nM | < 20 nM | 20 to 200 nM | 20 to 200 nM | < 20 nM
CC1(C)CCNC[C@H]1Nc1ncc(C(F)(F)F)c(-c2c[nH]c3ccccc23)n1 [Compound 210] | ≥ 5000 nM | 200 to 5000 nM | ≥ 5000 nM | ≥ 5000 nM | 200 to 5000 nM
FC(F)(F)Cc1cnc(N[C@H]2CCCNC2)nc1-c1c[nH]c2ccccc12 [Compound 158] | ≥ 5000 nM | 200 to 5000 nM | ≥ 5000 nM | 200 to 5000 nM | 20 to 200 nM
Clc1cnc(N[C@H]2CCCNC2)nc1-c1c[nH]c2c(N3CCOCC3)cccc12 [Compound 150] | 200 to 5000 nM | 20 to 200 nM | 200 to 5000 nM | 200 to 5000 nM | 20 to 200 nM
